From US12172995B2, “Substituted indole and indazole compounds” (BRISTOL-MYERS SQUIBB COMPANY, priority 2018, dated 2024)

Experiments:
Type in all cases: cell-based
[1] = biological target: T1, human TLR7 (Homo sapiens, UniProt Q9NYK1); assay: TLR7 inhibition reporter assay (HEK-Blue SEAP); settings: HEK-Blue cells overexpressing human TLR7, stimulated with gardiquimod 7.5 μM, 22 hour incubation
T1 construct: host or cells: HEK-Blue cells
T1 sequence (Q9NYK1 27-1049): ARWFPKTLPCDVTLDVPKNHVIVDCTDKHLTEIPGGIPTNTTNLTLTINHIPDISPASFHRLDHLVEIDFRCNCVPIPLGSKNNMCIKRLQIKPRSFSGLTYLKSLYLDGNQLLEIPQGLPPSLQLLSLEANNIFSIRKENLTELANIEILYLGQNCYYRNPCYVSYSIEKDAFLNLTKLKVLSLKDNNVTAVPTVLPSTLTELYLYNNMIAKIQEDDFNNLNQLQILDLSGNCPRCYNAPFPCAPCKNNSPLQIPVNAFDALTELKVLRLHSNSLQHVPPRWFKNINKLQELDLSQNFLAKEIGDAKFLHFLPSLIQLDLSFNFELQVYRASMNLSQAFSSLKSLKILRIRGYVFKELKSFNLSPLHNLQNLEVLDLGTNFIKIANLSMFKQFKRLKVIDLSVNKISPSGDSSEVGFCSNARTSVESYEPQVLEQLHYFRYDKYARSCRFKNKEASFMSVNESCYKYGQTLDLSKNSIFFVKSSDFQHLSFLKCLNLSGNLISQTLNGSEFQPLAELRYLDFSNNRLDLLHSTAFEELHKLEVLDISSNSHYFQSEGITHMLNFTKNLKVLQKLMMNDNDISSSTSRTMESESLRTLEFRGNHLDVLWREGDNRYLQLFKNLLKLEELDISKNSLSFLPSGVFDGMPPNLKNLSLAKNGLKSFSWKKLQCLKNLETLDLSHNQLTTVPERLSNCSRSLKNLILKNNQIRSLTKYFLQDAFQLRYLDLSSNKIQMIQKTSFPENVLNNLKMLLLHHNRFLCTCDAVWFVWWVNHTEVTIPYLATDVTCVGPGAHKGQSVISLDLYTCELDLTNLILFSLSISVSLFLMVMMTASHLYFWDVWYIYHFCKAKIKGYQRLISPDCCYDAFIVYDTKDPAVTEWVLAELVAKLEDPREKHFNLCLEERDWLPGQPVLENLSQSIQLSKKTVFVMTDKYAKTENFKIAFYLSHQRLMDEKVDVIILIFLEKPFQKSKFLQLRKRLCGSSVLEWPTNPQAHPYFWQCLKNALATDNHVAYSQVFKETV
Outline: (§1)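 Reporter HEK-Blue lines; cpd 0.05 nM–50 μM, 30 min preincubation RT; agonist: TLR7 gardiquimod 7.5 μM, TLR8 R848 15.9 μM, TLR9 ODN2006 5 nM; 22 h 37 °C; SEAP detected colorimetrically; % inhib vs known inhibitor.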

[2] = biological target: T2, human TLR8 (Homo sapiens, UniProt Q9NR97); assay: TLR8 inhibition reporter assay (HEK-Blue SEAP); settings: HEK-Blue cells overexpressing human TLR8, stimulated with R848 15.9 μM, 22 hour incubation
T2 construct: host or cells: HEK-Blue cells
T2 sequence (Q9NR97 27-1041): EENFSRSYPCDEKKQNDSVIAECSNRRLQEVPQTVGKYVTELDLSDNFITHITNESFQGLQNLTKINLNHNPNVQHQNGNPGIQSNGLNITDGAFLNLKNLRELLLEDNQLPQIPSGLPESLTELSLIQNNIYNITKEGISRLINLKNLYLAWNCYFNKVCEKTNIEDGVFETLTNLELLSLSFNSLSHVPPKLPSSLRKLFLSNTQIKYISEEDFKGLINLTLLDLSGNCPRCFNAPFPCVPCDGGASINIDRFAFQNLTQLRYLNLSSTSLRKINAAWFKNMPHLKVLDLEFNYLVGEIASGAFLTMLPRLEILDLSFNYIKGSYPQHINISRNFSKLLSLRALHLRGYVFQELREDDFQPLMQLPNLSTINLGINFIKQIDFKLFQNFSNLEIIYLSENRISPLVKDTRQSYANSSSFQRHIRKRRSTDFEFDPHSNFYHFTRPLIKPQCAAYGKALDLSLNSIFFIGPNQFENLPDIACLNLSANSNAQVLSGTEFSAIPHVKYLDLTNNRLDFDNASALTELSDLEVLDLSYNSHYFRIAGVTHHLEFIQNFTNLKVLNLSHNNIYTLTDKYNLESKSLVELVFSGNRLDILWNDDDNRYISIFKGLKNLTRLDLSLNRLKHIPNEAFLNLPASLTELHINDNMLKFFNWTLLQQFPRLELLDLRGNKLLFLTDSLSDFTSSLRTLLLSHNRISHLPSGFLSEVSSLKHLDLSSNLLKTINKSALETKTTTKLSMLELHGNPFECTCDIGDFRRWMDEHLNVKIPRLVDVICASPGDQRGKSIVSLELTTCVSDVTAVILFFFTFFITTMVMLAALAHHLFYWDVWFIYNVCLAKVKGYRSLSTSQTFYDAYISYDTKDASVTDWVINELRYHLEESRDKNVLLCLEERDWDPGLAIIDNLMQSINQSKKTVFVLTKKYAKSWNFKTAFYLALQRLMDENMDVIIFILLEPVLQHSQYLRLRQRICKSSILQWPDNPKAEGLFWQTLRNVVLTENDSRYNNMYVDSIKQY
Outline: as §1

[3] = biological target: T3, human TLR9 (Homo sapiens, UniProt Q9NR96); assay: TLR9 inhibition reporter assay (HEK-Blue SEAP); settings: HEK-Blue cells overexpressing human TLR9, stimulated with ODN2006 5 nM, 22 hour incubation
T3 construct: host or cells: HEK-Blue cells
T3 sequence (Q9NR96 26-1032): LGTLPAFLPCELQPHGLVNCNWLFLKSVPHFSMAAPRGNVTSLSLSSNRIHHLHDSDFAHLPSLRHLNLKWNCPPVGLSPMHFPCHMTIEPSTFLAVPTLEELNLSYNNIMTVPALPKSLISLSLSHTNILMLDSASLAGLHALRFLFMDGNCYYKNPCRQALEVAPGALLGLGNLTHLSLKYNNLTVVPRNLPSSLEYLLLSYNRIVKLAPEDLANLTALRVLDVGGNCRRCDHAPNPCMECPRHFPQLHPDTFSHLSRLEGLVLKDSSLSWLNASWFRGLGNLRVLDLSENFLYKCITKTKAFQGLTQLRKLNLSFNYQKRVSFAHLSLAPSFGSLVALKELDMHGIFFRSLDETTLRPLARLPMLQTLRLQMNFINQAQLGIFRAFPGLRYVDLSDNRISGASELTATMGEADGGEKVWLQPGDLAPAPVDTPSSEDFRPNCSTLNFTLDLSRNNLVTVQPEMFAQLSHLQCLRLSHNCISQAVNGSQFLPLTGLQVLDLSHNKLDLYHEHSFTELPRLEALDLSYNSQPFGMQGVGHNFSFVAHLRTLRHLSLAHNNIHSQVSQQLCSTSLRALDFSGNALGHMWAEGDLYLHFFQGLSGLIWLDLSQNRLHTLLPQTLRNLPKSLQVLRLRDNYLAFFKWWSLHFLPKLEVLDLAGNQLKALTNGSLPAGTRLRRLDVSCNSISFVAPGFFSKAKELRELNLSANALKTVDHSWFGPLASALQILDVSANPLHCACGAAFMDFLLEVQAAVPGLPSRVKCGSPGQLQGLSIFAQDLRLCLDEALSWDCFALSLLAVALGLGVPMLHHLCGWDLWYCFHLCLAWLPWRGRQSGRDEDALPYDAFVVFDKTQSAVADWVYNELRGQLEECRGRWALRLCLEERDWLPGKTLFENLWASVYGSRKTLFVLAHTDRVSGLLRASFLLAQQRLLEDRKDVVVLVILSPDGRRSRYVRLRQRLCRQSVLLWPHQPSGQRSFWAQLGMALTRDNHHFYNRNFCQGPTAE
Outline: as §1

Row | SMILES | IC50 [1] [nM] | IC50 [2] [nM] | IC50 [3] [nM]
1 | Cc1cc2c(OC3CCN(C)CC3)n[nH]c2cc1-c1cc(C)c2ncnn2c1 [Example 171, 8-methyl-6-(5-methyl-3-((1-methylpiperidin-4-yl)oxy)-1H-indazol-6-yl)-[1,2,4]triazolo[1,5-a] pyridine] | 8.2 | 0.1 | 2770
2 | Cc1cc(-c2cc3[nH]nc(C4CCC(N5CC(F)(F)C5)CC4)c3cc2C(C)C)cn2ncnc12 (single isomer, unassigned) [Example 135, 6-(3-(4-(3,3-difluoroazetidin-1-yl)cyclohexyl)-5-isopropyl-1H-indazol-6-yl)-8-methyl-[1,2,4]triazolo[1,5-a]pyridine] | 15.5 | 9.4 | 18900
3 | Cc1cc(-c2cc(C)c3ncnn3c2)cc2[nH]nc(C3CCN(C(=O)CN(C)C)CC3)c12 [Example 75, 2-(dimethylamino)-1-(4-(4-methyl-6-(8-methyl-[1,2,4]triazolo[1,5-a]pyridin-6-yl)-1H-indazol-3-yl)piperidin-1-yl)ethan-1-one] | 7.2 | 14.1 | 1920
4 | Cc1cc(-c2cc(C)c3ncnn3c2)cc2[nH]nc(OC3CCC(N(C)C)CC3)c12 (single isomer, unassigned) [Example 179, N,N-dimethyl-4-((4-methyl-6-(8-methyl-[1,2,4]triazolo[1,5-a]pyridin-6-yl)-1H-indazol-3-yl)oxy)cyclohexan-1-amine] | 3.3 | 8.5 | 2080
5 | Cc1cc2c(C3CCCNC3)n[nH]c2cc1-c1cc(C)c(=O)n(C)c1 (stereo not drawn) [Example 46, 1,3-dimethyl-5-(5-methyl-3-(piperidin-3-yl)-1H-indazol-6-yl)pyridin-2(1H)-one] | 124 | 2.1 | 1040
6 | Cc1cc2c(C3CCNC3)n[nH]c2cc1-c1cc(C)c2ncnn2c1 (stereo not drawn) [Example 26, 8-methyl-6-(5-methyl-3-(pyrrolidin-3-yl)-1H-indazol-6-yl)-[1,2,4]triazolo[1,5-a]pyridine] | 18.8 | 1.5 | 1320
7 | Cc1cc(-c2cc3[nH]nc(C4CCN(C5CCOCC5)CC4)c3cc2C(C)C)cn2ncnc12 [Example 116, 6-(5-isopropyl-3-(1-(tetrahydro-2H-pyran-4-yl)piperidin-4-yl)-1H-indazol-6-yl)-8-methyl-[1,2,4]triazolo[1,5-a]pyridine] | 0.6 | 0.1 | 6550
8 | COc1cc(-c2cc(C)c3cn[nH]c3c2)cn2ncnc12 [Example 66, 8-methoxy-6-(4-methyl-1H-indazol-6-yl)-[1,2,4]triazolo[1,5-a] pyridine] | 218 | 45.4 | 8840

Next, values leading:

Row | IC50 [1] [nM] | IC50 [2] [nM] | IC50 [3] [nM] | SMILES
9 | 857 | 55.7 | ≥ 50000 | Cc1cc2c(N)n[nH]c2cc1-c1cc(C)c2ncnn2c1 [Example 201, 5-methyl-6-(8-methyl-[1,2,4]triazolo[1,5-a]pyridin-6-yl)-1H-indazol-3-amine]
10 | 4.9 | 1 | 5760 | CCc1cc(-c2cc(C)c3ncnn3c2)cc2[nH]nc(OC3CCN(CC(=O)N(C)C)CC3)c12 [Example 196, 2-(4-((4-ethyl-6-(8-methyl-[1,2,4]triazolo[1,5-a]pyridin-6-yl)-1H-indazol-3-yl)oxy)piperidin-1-yl)-N,N-dimethylacetamide]
11 | 4 | 2.3 | 4340 | Cc1cc(-c2cc(C)c3ncnn3c2)cc2[nH]nc(OC3CCC(NCCS(C)(=O)=O)CC3)c12 (stereo not drawn) [Example 188, 4-((4-methyl-6-(8-methyl-[1,2,4]triazolo[1,5-a]pyridin-6-yl)-1H-indazol-3-yl)oxy)-N-(2-(methylsulfonyl)ethyl)cyclohexan-1-amine]
12 | 2.5 | 0.15 | 32300 | Cc1cc(-c2cc3[nH]nc(C4CCC(N5CCC(S(C)(=O)=O)C5)CC4)c3cc2C(C)C)cn2ncnc12 (single isomer, unassigned) [Example 211, 6-(5-isopropyl-3-(4-(3-(methylsulfonyl)pyrrolidin-1-yl)cyclohexyl)-1H-indazol-6-yl)-8-methyl-[1,2,4]triazolo[1,5-a]pyridine]
13 | 25.9 | 5.8 | 27400 | Cc1cc2c(OC3CCC(N(C)C)CC3)n[nH]c2cc1-c1cc(C)c2ncnn2c1 (single isomer, unassigned) [Example 182, N,N-dimethyl-4-((5-methyl-6-(8-methyl-[1,2,4]triazolo[1,5-a]pyridin-6-yl)-1H-indazol-3-yl)oxy)cyclohexan-1-amine]
14 | 12.2 | 8.2 | 2340 | Cc1cc(-c2cc(C)c3ncnn3c2)cc2[nH]nc(OC3CCC(NC4CC4)CC3)c12 (single isomer, unassigned) [Example 189, N-cyclopropyl-4-((4-methyl-6-(8-methyl-[1,2,4]triazolo[1,5-a]pyridin-6-yl)-1H-indazol-3-yl)oxy)cyclohexan-1-amine]
